Measurements as given in article PMC8565742 (PLoS Neglected Tropical Diseases, 2021).
Where two headings read alike, the source gives them in different places.

Columns and labels:
Sm.TRPMPZQ [1] = target: T1, Sm.TRPMPZQ (Schistosoma mansoni, UniProt A0A5K4F0X5); test: Single channel recording, inside-out patch, HEK293 stably expressing Sm.TRPMPZQ; assay type: biochemical; conditions: for mean slope single-channel conductance: agonist 10 μM, Ca2+-free, inside-out, mean ± SD
Description: For electrophysiological analysis, a HEK293 cell line stably expressing Sm.TRPMPZQ [7] was generated using the Flp-In T-REx system (K650001, Thermofisher Scientific, Carlsbad, CA). Flp-In T-REx HEK293 cells were cultured in Dulbecco’s modified Eagle’s medium supplemented with 10% fetal bovine serum, penicillin (100 units/ml), streptomycin (100 μg/ml), L-glutamine (290 μg/ml), blasticidin (10 μg/ml), and hydromycin B (100 μg/ml). HEK293 cells were plated onto glass coverslips and Sm.TRPMPZQ expression induced by addition of tetracycline (2 μg/ml) to the media 24–48 hours before recording. Prior to recording, coverslips were secured within a recording chamber of an Olympus BX51WI upright microscope. Cells were bathed in a solution containing 145 mM KCl, 10 mM HEPES, 1 mM EGTA (pH 7.2, 310–315 mOsm/kg with sucrose). The pipette solution contained 140 mM LiCl, 10 mM HEPES, 1 mM EGTA (pH 7.4, 280–285 mOsm/kg with sucrose). Patch pipettes were made of borosilicate glass (BF150-110-10, Sutter Instrument, Novato, CA) pulled on a vertical puller (Narishige, Amityville, NY, Model PC-10) with resistances 8–10 MΩ. […] Signals were filtered with an 8-pole Bessel low pass filter at 1 kHz, and sampled at 20 kHz. Open probability (Popen) was assessed in single channel search mode using Clampfit 10 software. All recordings were done at room temperature. Data represent mean±standard error for ≥3 independent experiments.

Sm.TRPMPZQ [2] = target: T1, Sm.TRPMPZQ; test: cell-based; conditions: for Emax: HEK293
Description: HEK cells were transfected with cDNA (400μg/ml DNA) encoding Sm.TRPMPZQ using a Maxcyte STX electroporation system and incubated overnight at 37°C. This system is uniquely capabable of large scale transfections providing one batch of cells ready for large scale HTS [30]. Briefly, the HEK cells were resuspended at 10^8/ml in Maxcyte electroporation buffer. Plasmid DNA was added to the cells in buffer to achieve a concentration of 400 μg/ml from a stock of 5mg/ml (in TE buffer). This mixture was loaded into the appropriate cassette, inserted into the machine, and cells electroporated. Cells were then frozen to provide a single supply of transfected cells for all subsequent assays. On the day of the assays, cells were thawed in a 37°C waterbath, and resuspended in DMEM + 10% FBS and counted. The cells were pelleted by centrifugation at 170xg for 5 minutes. The media was aspirated, and the remaining pellet was resuspended in 1x HBSS with 20 mM HEPES and 1% DMSO to achieve 1.33x10^6cells/ml. […] A read of basal fluorescence values was made (5s) prior to addition of compounds or controls (30 nl). In both ‘agonist’ and ‘antagonist mode’, the total assay volume was 6μl (1% DMSO). […] Ligand performance was categorized using an algorithm based on the activity of the entire dataset to define a ‘hit-cutoff’ parameter for both agonist-mode and antagonist-mode screening. […] Titration assays were executed using the same reagents, protocols and detection systems, done as 10-point concentration-response curves, performed in triplicate. Counter-screening was performed using untransfected HEK293 cells for comparison with results testing the same compounds effect on cells expressing Sm.TRPMPZQ, with ATP used as the positive control. For each compound, activity was plotted against compound concentration and data were fitted with a sigmoidal function.

Sm.TRPMPZQ [3] = target: T1, Sm.TRPMPZQ; test: cell-based
Description: HEK cells were transfected with cDNA (400μg/ml DNA) encoding Sm.TRPMPZQ using a Maxcyte STX electroporation system and incubated overnight at 37°C. This system is uniquely capabable of large scale transfections providing one batch of cells ready for large scale HTS [30]. Briefly, the HEK cells were resuspended at 10^8/ml in Maxcyte electroporation buffer. Plasmid DNA was added to the cells in buffer to achieve a concentration of 400 μg/ml from a stock of 5mg/ml (in TE buffer). This mixture was loaded into the appropriate cassette, inserted into the machine, and cells electroporated. Cells were then frozen to provide a single supply of transfected cells for all subsequent assays. On the day of the assays, cells were thawed in a 37°C waterbath, and resuspended in DMEM + 10% FBS and counted. The cells were pelleted by centrifugation at 170xg for 5 minutes. The media was aspirated, and the remaining pellet was resuspended in 1x HBSS with 20 mM HEPES and 1% DMSO to achieve 1.33x10^6cells/ml. This cell suspension was then dispensed at 3 μl/well to the 1536 well plates (Greiner Bio One part 789072) at a density of 4,000 cells/well. Measurements of fluorescence intensity (λex = 470 nm, λem = 535 nm) were made using a FLIPR (Molecular Devices FLIPR Tetra). A read of basal fluorescence values was made (5s) prior to addition of compounds or controls (30 nl). In both ‘agonist’ and ‘antagonist mode’, the total assay volume was 6μl (1% DMSO). […] Ligand performance was categorized using an algorithm based on the activity of the entire dataset to define a ‘hit-cutoff’ parameter for both agonist-mode and antagonist-mode screening. […] Titration assays were executed using the same reagents, protocols and detection systems, done as 10-point concentration-response curves, performed in triplicate. Counter-screening was performed using untransfected HEK293 cells for comparison with results testing the same compounds effect on cells expressing Sm.TRPMPZQ, with ATP used as the positive control. For each compound, activity was plotted against compound concentration and data were fitted with a sigmoidal function. […] ChemAxon (https://www.chemaxon.com) academic licensing was provided for the use of Instant JChem (ver. 15.10.12.0) to perform compound mining of the libraries utilized in this effort.

[4] = S2 Table, titration, listed as SR-01000003100-3
[5] = S2 Table, titration, listed as SR-01000003100-19

T1 sequence (A0A5K4F0X5 entry or part of it): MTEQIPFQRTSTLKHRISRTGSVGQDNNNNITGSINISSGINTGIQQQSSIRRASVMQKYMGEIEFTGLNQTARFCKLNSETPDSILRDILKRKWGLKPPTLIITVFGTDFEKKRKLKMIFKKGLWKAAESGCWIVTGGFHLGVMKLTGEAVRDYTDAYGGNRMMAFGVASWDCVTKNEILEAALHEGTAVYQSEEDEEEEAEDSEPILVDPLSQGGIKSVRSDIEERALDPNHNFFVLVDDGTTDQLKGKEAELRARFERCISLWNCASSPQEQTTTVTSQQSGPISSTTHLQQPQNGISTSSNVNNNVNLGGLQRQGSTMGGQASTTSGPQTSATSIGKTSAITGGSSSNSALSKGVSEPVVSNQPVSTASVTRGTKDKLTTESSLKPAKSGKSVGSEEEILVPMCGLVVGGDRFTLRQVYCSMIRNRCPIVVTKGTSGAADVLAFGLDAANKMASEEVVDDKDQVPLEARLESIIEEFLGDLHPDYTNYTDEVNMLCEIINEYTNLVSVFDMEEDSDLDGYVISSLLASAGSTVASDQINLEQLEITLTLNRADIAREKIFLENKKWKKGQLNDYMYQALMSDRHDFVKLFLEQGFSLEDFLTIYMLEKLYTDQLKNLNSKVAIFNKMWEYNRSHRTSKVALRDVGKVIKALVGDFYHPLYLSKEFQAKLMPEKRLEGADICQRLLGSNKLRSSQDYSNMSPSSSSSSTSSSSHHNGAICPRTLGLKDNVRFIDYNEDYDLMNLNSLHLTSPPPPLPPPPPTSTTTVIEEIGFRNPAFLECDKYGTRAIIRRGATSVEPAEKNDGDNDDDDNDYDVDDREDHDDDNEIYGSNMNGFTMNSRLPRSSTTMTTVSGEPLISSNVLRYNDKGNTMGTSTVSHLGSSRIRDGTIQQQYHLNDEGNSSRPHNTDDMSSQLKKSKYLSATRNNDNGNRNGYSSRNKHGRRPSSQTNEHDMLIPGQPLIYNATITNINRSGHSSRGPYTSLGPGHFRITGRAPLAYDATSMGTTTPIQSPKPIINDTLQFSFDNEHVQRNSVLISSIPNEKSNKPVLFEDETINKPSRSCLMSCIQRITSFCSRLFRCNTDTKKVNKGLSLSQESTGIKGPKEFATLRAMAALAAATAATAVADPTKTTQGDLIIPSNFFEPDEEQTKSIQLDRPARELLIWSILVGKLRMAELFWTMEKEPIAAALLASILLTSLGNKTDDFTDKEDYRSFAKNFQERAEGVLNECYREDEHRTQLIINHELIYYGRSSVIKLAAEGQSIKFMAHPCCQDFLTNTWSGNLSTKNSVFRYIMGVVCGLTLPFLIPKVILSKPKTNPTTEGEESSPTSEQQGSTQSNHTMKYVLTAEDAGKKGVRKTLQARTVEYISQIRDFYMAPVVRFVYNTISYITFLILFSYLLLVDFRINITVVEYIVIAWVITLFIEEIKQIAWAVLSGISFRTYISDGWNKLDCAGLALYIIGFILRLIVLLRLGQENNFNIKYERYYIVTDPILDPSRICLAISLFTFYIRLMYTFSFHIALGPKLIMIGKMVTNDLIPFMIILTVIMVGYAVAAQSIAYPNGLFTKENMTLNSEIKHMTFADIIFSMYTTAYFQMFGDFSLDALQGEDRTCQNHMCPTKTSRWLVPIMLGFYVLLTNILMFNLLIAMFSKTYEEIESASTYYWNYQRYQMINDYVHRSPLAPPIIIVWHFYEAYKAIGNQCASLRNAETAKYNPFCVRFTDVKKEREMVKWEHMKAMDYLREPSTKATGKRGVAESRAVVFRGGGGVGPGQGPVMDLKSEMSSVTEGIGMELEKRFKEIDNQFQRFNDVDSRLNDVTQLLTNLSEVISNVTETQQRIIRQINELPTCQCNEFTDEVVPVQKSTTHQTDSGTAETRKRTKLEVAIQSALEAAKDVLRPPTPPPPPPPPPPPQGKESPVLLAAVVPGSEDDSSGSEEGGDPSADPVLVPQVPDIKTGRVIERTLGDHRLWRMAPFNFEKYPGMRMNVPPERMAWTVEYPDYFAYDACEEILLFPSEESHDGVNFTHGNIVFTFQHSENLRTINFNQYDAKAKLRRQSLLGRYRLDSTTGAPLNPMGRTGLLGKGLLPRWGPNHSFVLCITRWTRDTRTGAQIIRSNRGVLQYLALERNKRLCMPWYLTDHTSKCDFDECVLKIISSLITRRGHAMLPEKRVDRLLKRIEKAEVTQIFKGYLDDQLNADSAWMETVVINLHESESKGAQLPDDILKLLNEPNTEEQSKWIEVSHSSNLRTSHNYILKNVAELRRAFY

In the case of `O=C(C1CCCCC1)N1CC(=O)N2CCc3ccccc3C2C1` (stereo not shown) [PZQ, praziquantel, reference compound], the “mean slope single-channel conductance” value (Sm.TRPMPZQ [1]) is reported as 76 ± 8 pS, the “Sm.TRPMPZQ ANT Hill Slope” value (Sm.TRPMPZQ [2]; [4]) is reported as 1.74 and the Emax (Sm.TRPMPZQ [3]; HEK293, read-out: Sm.TRPMPZQ AG Averaged Max % Response, S2 Table, titration) is reported as 80.3%. For the same compound, the “Sm.TRPMPZQ AG Hill Slope” value (Sm.TRPMPZQ [3]; [4]) was 1.753, the “Sm.TRPMPZQ AG Averaged Max % Response” value (Sm.TRPMPZQ [3]; [5]) was 90.5499% and the “Sm.TRPMPZQ AG Hill Slope” value (Sm.TRPMPZQ [3]; [5]) was 1.657.

For `Cc1onc(-c2ccccc2)c1C(=O)N1CCN(C2c3ccccc3-c3ccccc32)CC1` [ANT1, 1-(9H-fluoren-9-yl)-4-(5-methyl-3-phenyl-1,2-oxazole-4-carbonyl)piperazine], the “effect on single channel open probability (Popen)” value (Sm.TRPMPZQ [1]; 50 μM, channels activated by PZQ or AG1 (10 μM)) was “decreased Popen”, the Emax (Sm.TRPMPZQ [2]; S3 Table, titration, read-out: Sm.TRPMPZQ ANT Averaged Max % Response) was 105% and the IC50 (Sm.TRPMPZQ [2]; read-out: IC50, block of PZQ-evoked Ca2+ signals) was 1.3 ± 0.3 µM. It also gave an Emax (Sm.TRPMPZQ [3]; HEK293, S3 Table, titration, read-out: Sm.TRPMPZQ AG Averaged Max % Response) of 11.6% and an EC50 (Sm.TRPMPZQ [3]; S3 Table, 10-point titration in triplicate, unit inferred, read-out: Sm.TRPMPZQ AG Final EC50) of over 12.4 µM.

In the case of `COc1ccc(-c2nnc3ccc(-c4cccc(C(C)C)c4)cn23)cc1OC` [AG1, 3-(3,4-Dimethoxyphenyl)-6-(3-propan-2-ylphenyl)-[1,2,4]triazolo[4,3-a]pyridine], the “mean slope single-channel conductance” value (Sm.TRPMPZQ [1]) is reported as 61 ± 4 pS, the Emax (Sm.TRPMPZQ [2]; S2 Table, antagonist mode titration, read-out: Sm.TRPMPZQ Averaged Max % Response) is reported as 109% and the EC50 (Sm.TRPMPZQ [2]; S2 Table, 10-point titration in triplicate, unit inferred, read-out: Sm.TRPMPZQ ANT Final EC50) is reported as 0.571 µM. The “Sm.TRPMPZQ ANT Hill Slope” value (Sm.TRPMPZQ [2]; S2 Table, titration) was 2.322, the Emax (Sm.TRPMPZQ [3]; HEK293, S2 Table, titration, read-out: Sm.TRPMPZQ AG Averaged Max % Response) was 97.5% and the activation at 5 µM (Sm.TRPMPZQ [3]; HEK293, read-out: Bmax, activation in primary screen) was 93.9 ± 5.6%. The EC50 (Sm.TRPMPZQ [3]; S2 Table, 10-point titration in triplicate, unit inferred, read-out: Sm.TRPMPZQ AG Final EC50) was 1.56 µM, the “Sm.TRPMPZQ AG Hill Slope” value (Sm.TRPMPZQ [3]; S2 Table, titration) was 1.659 and the agonist efficacy (Sm.TRPMPZQ [3]; concentration-response curve analysis) was “full agonist”. For the same compound, the EC50 (Sm.TRPMPZQ [3]; concentration-response of library sample, Ca2+ flux, read-out: EC50) was 1.6 ± 0.3 µM and the EC50 (Sm.TRPMPZQ [3]; re-sourced, independently procured sample, read-out: EC50) was 9.2 µM.
